These results are taken from patent US20260097111A1, “ETHER LIPIDS FOR HYPERACTIVATION OF MAMMALIAN DENDRITIC CELLS” (priority 2022, published 2026).

The test has as its system human moDCs and autologous memory CD4+ T cells. The test can be described thus: moDC and memory CD4+ T cell coculture, cytokine secretion and viability. The test is classed as cell-based. Conditions: for IL-1β: MCC950 10 μM or anti-IL-1β 10 μg/mL added to R848+DGP where named, FIG. 36A. As for the experimental part: Monocyte Isolation, Storage, and Differentiation into moDC.
Memory CD4+ T Cell Isolation. The CD14− fraction of the leukapheresis product was collected and used for further isolation of memory CD4+ T cells. First, approximately 5×10^9 total nucleated cells or less of the blood product were pelleted at 200×g for 10 min. The cells were resuspended in two 50 mL conical tubes each containing 25 mL in volume. Cells were then incubated with microbeads targeting red blood cells and granulocytes at 4° C. for 15 min. Cells were loaded on equilibrated MultiMACS columns using the “Deplete” program. Columns were washed twice with separation buffer and the flow-through of peripheral blood mononuclear cells (PBMCs) were collected and counted. The Memory CD4+ T Cell Isolation Kit from Miltenyi was then used to isolate memory CD4+ T cells from the PBMCs. After following the manufacturer's protocol for antibody and microbead incubations, cells were loaded onto equilibrated MultiMACS columns using the “Deplete” program. After 2 column washes using separation buffer, the negative fraction was collected and counted. An aliquot was stained to confirm the purity of the memory CD4 T cell population. […] Vials were placed in CoolCell freezing containers and placed in a −80° C. freezer for no longer than 1 week. Frozen cells were transferred for long-term storage to the vapor phase of a liquid nitrogen freezer until use.
Treatments of Cells For Analysis of Cytokine Secretion. Human moDCs were plated at 5×10^4 cells/well in 96-well U-bottom tissue culture plates in R10++ media by adding 50 μL of cells per well. To each well, 50 μL of memory CD4 T cells at 2.5×10^6 cells/mL was added. For control conditions where only moDC or only CD4 T cells were plated, the missing cells were replaced with an equivalent volume of R10++ media.
Lyophilized R848 stocks were prepared as described above and frozen at −80° C. for storage. An aliquot of frozen R848 was thawed and further diluted to 22.8 μM in R10++ (8 μg/mL R848). A portion of diluted R848 was combined with MCC950 to reach a concentration of 80 μM MCC950. Another portion of diluted R848 was combined with anti-IL-1β blocking antibody to reach a concentration of 80 μg/mL anti-IL-1β. Cell cultures received 25 μL of these mixes depending on desired treatment. For wells not receiving R848 treatment, an equivalent volume of R10++ media was added to wells. For these three chemicals, final concentrations in the wells were 2.85 μM R848, 10 μM MCC950, and 10 μg/mL anti-IL-1β.
A4.44% solution of KP407 dissolved in sterile, distilled water was prepared at a temperature of 4° C. DGP from powder was prepared by adding KP407 solution to lipid. […] Sterile 10×PBS was added to the solution resulting in a 1×PBS concentration. […]

In the case of `CCCCCCCCCCCCCCCCCCCCCCOC[C@@H](O)COP(=O)(O)O` [Compound 2, 1-docosyl-sn-glycerol-3-phosphate], for the setting “coculture, 2 days, FIG. 38A-C”, the “production of IL-4, IL5, and IL-13” value is reported as “not elevated compared to unstimulated conditions”. In addition, the IL-1β entry (coculture, 2 days) is reported as “minimal IL-1β was detected”.

`CC(C)(O)c1coc(S(=O)(=O)NC(=O)Nc2c3c(cc4c2CCC4)CCC3)c1` [MCC950, reference compound]: where the note is “coculture with anti-CD3, 2 days, MCC950 or anti-IL-1β added to R848+DGP where named, FIG. 37A”, the IFNγ entry is given as “IFNγ production was significantly reduced”. The IL-1β result (coculture, 2 days) is “IL-1β was significantly reduced”.
